Reference: the supplement of paper PMC10307832

Tests used:
Experiment in all cases: relative viability (nuclei count vs DMSO), 5 days (fraction); higher = more cells survive
[1] = compound: CCN(CCO)CCCC(C)Nc1ccnc2cc(Cl)ccc12 [Hydroxychloroquine] + CS(=O)(=O)N1CCN(Cc2cc3nc(-c4cccc5[nH]ncc45)nc(N4CCOCC4)c3s2)CC1 [Pictilisib] (partner 1 µM)
In short: (§1)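 Lung cancer cell lines in 1536-well plates were dosed by pin tool the day after seeding, either with one drug alone or with a fixed anchor-drug dose plus five library-drug doses (not always all listed) in √10 steps. After 5 days, cells were fixed and their nuclei stained in one step (final 0.05% Triton X-100, 1% formaldehyde, 1 ug/ml Hoechst), then counted on 4× images. Relative viability is the nuclei count in treated wells divided by that in vehicle wells. Values are medians of duplicate plates.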

[2] = compound: CCN(CCO)CCCC(C)Nc1ccnc2cc(Cl)ccc12 [Hydroxychloroquine] + CC1(C)CCC(c2ccc(Cl)cc2)=C(CN2CCN(c3ccc(C(=O)NS(=O)(=O)c4ccc(N[C@H](CCN5CCOCC5)CSc5ccccc5)c(S(=O)(=O)C(F)(F)F)c4)cc3)CC2)C1 [Navitoclax] (partner 0.5 µM)
In short: as §1

[3] = compound: CCN(CCO)CCCC(C)Nc1ccnc2cc(Cl)ccc12 [Hydroxychloroquine] + CC(C)C[C@H](NC(=O)[C@H](Cc1ccccc1)NC(=O)c1cnccn1)B(O)O [Bortezomib] (partner 0.002 µM)
In short: as §1

[4] = compound: CCN(CCO)CCCC(C)Nc1ccnc2cc(Cl)ccc12 [Hydroxychloroquine] + C[C@]1(O)C[C@@H](c2nc(-c3ccc4ccc(-c5ccccc5)nc4c3)c3c(N)nccn32)C1 [Linsitinib] (partner 1 µM)
In short: as §1

[5] = compound: CCN(CCO)CCCC(C)Nc1ccnc2cc(Cl)ccc12 [Hydroxychloroquine] + O=C(c1cc(Cc2n[nH]c(=O)c3ccccc23)ccc1F)N1CCN(C(=O)C2CC2)CC1 [Olaparib] (partner 8 µM)
In short: as §1

[6] = compound: CCN(CCO)CCCC(C)Nc1ccnc2cc(Cl)ccc12 [Hydroxychloroquine] + C[C@@H](Oc1cc(-c2cnn(C3CCNCC3)c2)cnc1N)c1c(Cl)ccc(F)c1Cl [Crizotinib] (partner 1 µM)
In short: as §1

[7] = compound: CCN(CCO)CCCC(C)Nc1ccnc2cc(Cl)ccc12 [Hydroxychloroquine] + COc1cc2c(Oc3ccc(NC(=O)C4(C(=O)Nc5ccc(F)cc5)CC4)cc3F)ccnc2cc1OCCCN1CCOCC1 [Foretinib] (partner 0.25 µM)
In short: as §1

[8] = compound: CCN(CCO)CCCC(C)Nc1ccnc2cc(Cl)ccc12 [Hydroxychloroquine] + Cc1nc(NC(=O)N2CCC[C@H]2C(N)=O)sc1-c1ccnc(C(C)(C)C(F)(F)F)c1 [Alpelisib] (partner 2 µM)
In short: as §1

[9] = compound: CCN(CCO)CCCC(C)Nc1ccnc2cc(Cl)ccc12 [Hydroxychloroquine] + CS(=O)(=O)CCNCc1ccc(-c2ccc3ncnc(Nc4ccc(OCc5cccc(F)c5)c(Cl)c4)c3c2)o1 [Lapatinib] (partner 2 µM)
In short: as §1

[10] = compound: CCN(CCO)CCCC(C)Nc1ccnc2cc(Cl)ccc12 [Hydroxychloroquine]
In short: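 A plate was accepted only when its control CV was below 25% and the cells had doubled at least once. Viability is defined from nuclear counts as treated wells divided by vehicle wells, with the median taken across plates. That median covers lung cancer cell lines grown in 1536-well plates, dosed by pinning at five √10-spaced library-drug concentrations, and counted in MetaXpress from 4× Hoechst images after 5 days.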

[11] = compound: CCN(CCO)CCCC(C)Nc1ccnc2cc(Cl)ccc12 [Hydroxychloroquine] + N=C(N)NC(=N)NCCc1ccccc1 [Phenformin] (partner 250 µM)
In short: as §1

[12] = compound: CCN(CCO)CCCC(C)Nc1ccnc2cc(Cl)ccc12 [Hydroxychloroquine] + Cc1nc(Nc2ncc(C(=O)Nc3c(C)cccc3Cl)s2)cc(N2CCN(CCO)CC2)n1 [Dasatinib] (partner 0.075 µM)
In short: as §1

[13] = compound: CCN(CCO)CCCC(C)Nc1ccnc2cc(Cl)ccc12 [Hydroxychloroquine] + Cc1cc(Nc2cc(N3CCN(C)CC3)nc(Sc3ccc(NC(=O)C4CC4)cc3)n2)n[nH]1 [Tozasertib] (partner 0.1 µM)
In short: as §1

[14] = compound: CCN(CCO)CCCC(C)Nc1ccnc2cc(Cl)ccc12 [Hydroxychloroquine] + COc1cccc2cc(-c3nc([C@H]4CC[C@H](C(=O)O)CC4)n4ncnc(N)c34)[nH]c12 [OSI-027] (partner 0.5 µM)
In short: as §1

[15] = compound: CCN(CCO)CCCC(C)Nc1ccnc2cc(Cl)ccc12 [Hydroxychloroquine] + CCNC(=O)c1noc(-c2cc(C(C)C)c(O)cc2O)c1-c1ccc(CN2CCOCC2)cc1 [Luminespib] (partner 0.01 µM)
In short: as §1

Q: For EBC-1, which relative viability ([1]; first compound 0.5 µM) is on record?
A: 0.367

Q: And the relative viability ([1]; first compound 1.581 µM)?
A: 0.307

Q: What about the relative viability ([1]; first compound 5 µM) of the same cell line?
A: 0.374

Q: And the relative viability ([1]; first compound 15.81 µM)?
A: 0.354

Q: What about the relative viability ([1]; first compound 50 µM) of the same cell line?
A: 0.295

Q: And the relative viability ([2]; first compound 0.5 µM)?
A: 0.371

Q: What about the relative viability ([2]; first compound 1.581 µM) of the same cell line?
A: 0.387

Q: And the relative viability ([2]; first compound 5 µM)?
A: 0.418

Q: And the relative viability ([2]; first compound 15.81 µM)?
A: 0.412

Q: And the relative viability ([2]; first compound 50 µM)?
A: 0.374

Q: What about the relative viability ([3]; first compound 0.5 µM) of the same cell line?
A: 0.471

Q: And the relative viability ([3]; first compound 1.581 µM)?
A: 0.51

Q: What about the relative viability ([3]; first compound 5 µM) of the same cell line?
A: 0.505

Q: What about the relative viability ([3]; first compound 15.81 µM) of the same cell line?
A: 0.519

Q: And the relative viability ([3]; first compound 50 µM)?
A: 0.459

Q: What about the relative viability ([4]; first compound 0.5 µM) of the same cell line?
A: 0.953

Q: What about the relative viability ([4]; first compound 1.581 µM) of the same cell line?
A: 0.505

Q: And the relative viability ([4]; first compound 5 µM)?
A: 0.992

Q: What about the relative viability ([4]; first compound 15.81 µM) of the same cell line?
A: 0.769

Q: And the relative viability ([4]; first compound 50 µM)?
A: 0.915

Q: And the relative viability ([5]; first compound 0.5 µM)?
A: 0.711

Q: And the relative viability ([5]; first compound 1.581 µM)?
A: 0.766

Q: What about the relative viability ([5]; first compound 5 µM) of the same cell line?
A: 0.722

Q: What about the relative viability ([5]; first compound 15.81 µM) of the same cell line?
A: 0.772

Q: And the relative viability ([5]; first compound 50 µM)?
A: 0.573

Q: And the relative viability ([6]; first compound 0.5 µM)?
A: 0.196

Q: And the relative viability ([6]; first compound 1.581 µM)?
A: 0.181

Q: What about the relative viability ([6]; first compound 5 µM) of the same cell line?
A: 0.181

Q: And the relative viability ([6]; first compound 15.81 µM)?
A: 0.189

Q: What about the relative viability ([6]; first compound 50 µM) of the same cell line?
A: 0.189

Q: What about the relative viability ([7]; first compound 0.5 µM) of the same cell line?
A: 0.122

Q: And the relative viability ([7]; first compound 1.581 µM)?
A: 0.093

Q: What about the relative viability ([7]; first compound 5 µM) of the same cell line?
A: 0.0998

Q: What about the relative viability ([7]; first compound 15.81 µM) of the same cell line?
A: 0.11

Q: And the relative viability ([7]; first compound 50 µM)?
A: 0.132

Q: And the relative viability ([8]; first compound 0.5 µM)?
A: 1.01

Q: What about the relative viability ([8]; first compound 1.581 µM) of the same cell line?
A: 0.572

Q: What about the relative viability ([8]; first compound 5 µM) of the same cell line?
A: 0.784

Q: What about the relative viability ([8]; first compound 15.81 µM) of the same cell line?
A: 0.688

Q: What about the relative viability ([8]; first compound 50 µM) of the same cell line?
A: 0.599

Q: And the relative viability ([9]; first compound 0.5 µM)?
A: 0.212

Q: And the relative viability ([9]; first compound 1.581 µM)?
A: 0.183

Q: What about the relative viability ([9]; first compound 5 µM) of the same cell line?
A: 0.213

Q: And the relative viability ([9]; first compound 15.81 µM)?
A: 0.225

Q: And the relative viability ([9]; first compound 50 µM)?
A: 0.182

Q: What about the relative viability ([10]; 0.5 µM) of the same cell line?
A: 1.01

Q: And the relative viability ([10]; 1.581 µM)?
A: 0.897

Q: What about the relative viability ([10]; 5 µM) of the same cell line?
A: 1.05

Q: What about the relative viability ([10]; 15.81 µM) of the same cell line?
A: 0.973

Q: And the relative viability ([10]; 50 µM)?
A: 1.13

Q: For NCI-H1623, which relative viability ([11]; first compound 0.5 µM) is on record?
A: 0.544

Q: What about the relative viability ([11]; first compound 1.581 µM) of the same cell line?
A: 0.565

Q: What about the relative viability ([11]; first compound 5 µM) of the same cell line?
A: 0.578

Q: And the relative viability ([11]; first compound 15.81 µM)?
A: 0.606

Q: What about the relative viability ([11]; first compound 50 µM) of the same cell line?
A: 0.588

Q: And the relative viability ([12]; first compound 0.5 µM)?
A: 0.554

Q: And the relative viability ([12]; first compound 1.581 µM)?
A: 0.485

Q: And the relative viability ([12]; first compound 5 µM)?
A: 0.51

Q: What about the relative viability ([12]; first compound 15.81 µM) of the same cell line?
A: 0.547

Q: And the relative viability ([12]; first compound 50 µM)?
A: 0.52

Q: And the relative viability ([13]; first compound 0.5 µM)?
A: 0.392

Q: What about the relative viability ([13]; first compound 1.581 µM) of the same cell line?
A: 0.405

Q: And the relative viability ([13]; first compound 5 µM)?
A: 0.406

Q: And the relative viability ([13]; first compound 15.81 µM)?
A: 0.526

Q: And the relative viability ([13]; first compound 50 µM)?
A: 0.488

Q: And the relative viability ([7]; first compound 0.5 µM)?
A: 0.823

Q: What about the relative viability ([7]; first compound 1.581 µM) of the same cell line?
A: 0.842

Q: What about the relative viability ([7]; first compound 5 µM) of the same cell line?
A: 0.88

Q: And the relative viability ([7]; first compound 15.81 µM)?
A: 0.937

Q: What about the relative viability ([7]; first compound 50 µM) of the same cell line?
A: 0.82

Q: And the relative viability ([14]; first compound 0.5 µM)?
A: 0.411

Q: And the relative viability ([14]; first compound 1.581 µM)?
A: 0.406

Q: And the relative viability ([14]; first compound 5 µM)?
A: 0.449

Q: What about the relative viability ([14]; first compound 15.81 µM) of the same cell line?
A: 0.418

Q: What about the relative viability ([14]; first compound 50 µM) of the same cell line?
A: 0.439

Q: And the relative viability ([15]; first compound 0.5 µM)?
A: 0.431

Q: What about the relative viability ([15]; first compound 1.581 µM) of the same cell line?
A: 0.409

Q: What about the relative viability ([15]; first compound 5 µM) of the same cell line?
A: 0.496

Q: And the relative viability ([15]; first compound 15.81 µM)?
A: 0.74

Q: And the relative viability ([15]; first compound 50 µM)?
A: 0.537

Q: What about the relative viability ([10]; 0.5 µM) of the same cell line?
A: 0.88

Q: And the relative viability ([10]; 1.581 µM)?
A: 0.959

Q: And the relative viability ([10]; 5 µM)?
A: 0.941

Q: And the relative viability ([10]; 15.81 µM)?
A: 0.943

Q: And the relative viability ([10]; 50 µM)?
A: 0.992
